Results as given in patent US8541588B2, “Sulfonamide derivatives” (Pfizer Limited, priority 2009, dated 2013).

Biological target: T1, Nav1.7 (or SCN9A) channel; HEK cells stably transfected with hSCN9A (Homo sapiens, UniProt Q15858)
T1 construct: expressed in transfected cells
Assay: Nav1.7 block, PatchXpress 7000 automated whole-cell voltage clamp, estimated IC50 (EIC50)
Assay type: cell-based
Settings: estimated IC50, PatchXpress platform

[1] = hSCN9A HEK cells, Examples 283-814
[2] = hSCN9A HEK cells, Examples 815-1040
[3] = hSCN9A HEK cells held at V1/2 of inactivation

T1 sequence (Q15858 whole entry): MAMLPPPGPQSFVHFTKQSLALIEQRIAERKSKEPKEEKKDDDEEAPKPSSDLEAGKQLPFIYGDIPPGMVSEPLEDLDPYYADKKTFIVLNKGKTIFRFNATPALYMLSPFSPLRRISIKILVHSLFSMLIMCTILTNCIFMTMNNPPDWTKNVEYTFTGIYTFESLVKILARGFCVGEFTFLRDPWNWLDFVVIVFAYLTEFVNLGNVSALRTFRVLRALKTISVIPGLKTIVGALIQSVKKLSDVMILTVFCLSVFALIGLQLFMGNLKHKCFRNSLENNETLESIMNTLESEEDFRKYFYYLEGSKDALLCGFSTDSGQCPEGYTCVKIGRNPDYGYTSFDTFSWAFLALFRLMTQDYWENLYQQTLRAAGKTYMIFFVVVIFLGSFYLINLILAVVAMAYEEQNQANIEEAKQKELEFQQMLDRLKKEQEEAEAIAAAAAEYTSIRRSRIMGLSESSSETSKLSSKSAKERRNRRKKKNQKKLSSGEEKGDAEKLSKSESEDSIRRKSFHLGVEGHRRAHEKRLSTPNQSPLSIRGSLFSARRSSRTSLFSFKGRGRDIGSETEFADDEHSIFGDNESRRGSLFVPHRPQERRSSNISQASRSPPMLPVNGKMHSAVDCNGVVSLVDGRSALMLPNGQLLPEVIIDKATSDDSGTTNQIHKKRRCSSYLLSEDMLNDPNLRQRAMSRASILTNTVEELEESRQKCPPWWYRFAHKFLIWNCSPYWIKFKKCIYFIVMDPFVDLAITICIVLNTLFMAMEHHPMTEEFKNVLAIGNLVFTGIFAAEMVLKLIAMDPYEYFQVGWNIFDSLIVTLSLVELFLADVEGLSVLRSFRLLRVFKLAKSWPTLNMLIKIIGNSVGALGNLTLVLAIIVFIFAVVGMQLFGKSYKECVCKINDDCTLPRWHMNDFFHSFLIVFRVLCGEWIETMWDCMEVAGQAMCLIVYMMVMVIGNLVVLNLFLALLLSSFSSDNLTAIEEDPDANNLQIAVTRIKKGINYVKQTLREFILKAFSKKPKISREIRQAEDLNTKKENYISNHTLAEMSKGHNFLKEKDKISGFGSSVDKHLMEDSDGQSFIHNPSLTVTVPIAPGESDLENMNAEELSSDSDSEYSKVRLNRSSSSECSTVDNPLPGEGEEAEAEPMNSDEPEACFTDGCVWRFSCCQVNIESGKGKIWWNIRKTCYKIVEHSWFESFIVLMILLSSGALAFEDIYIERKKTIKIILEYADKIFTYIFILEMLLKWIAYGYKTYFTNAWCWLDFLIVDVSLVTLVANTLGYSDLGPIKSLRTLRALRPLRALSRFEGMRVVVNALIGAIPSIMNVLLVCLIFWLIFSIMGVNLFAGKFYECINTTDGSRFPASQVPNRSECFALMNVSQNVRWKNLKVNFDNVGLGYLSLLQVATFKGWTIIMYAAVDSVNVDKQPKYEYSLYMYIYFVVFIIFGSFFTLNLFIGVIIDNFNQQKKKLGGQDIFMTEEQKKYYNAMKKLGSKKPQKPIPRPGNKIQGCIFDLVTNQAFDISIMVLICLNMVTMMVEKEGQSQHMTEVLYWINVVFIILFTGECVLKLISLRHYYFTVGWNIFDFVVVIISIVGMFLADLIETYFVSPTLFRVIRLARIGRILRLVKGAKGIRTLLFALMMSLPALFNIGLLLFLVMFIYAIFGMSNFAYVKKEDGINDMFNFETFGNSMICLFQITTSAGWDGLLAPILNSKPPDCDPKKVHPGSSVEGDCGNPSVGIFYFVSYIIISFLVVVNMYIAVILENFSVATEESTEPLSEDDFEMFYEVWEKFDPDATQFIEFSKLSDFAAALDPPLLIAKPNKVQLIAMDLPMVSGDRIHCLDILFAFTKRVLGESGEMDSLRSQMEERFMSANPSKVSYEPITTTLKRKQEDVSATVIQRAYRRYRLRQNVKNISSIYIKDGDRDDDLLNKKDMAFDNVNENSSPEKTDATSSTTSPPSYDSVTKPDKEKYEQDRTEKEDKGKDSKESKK

| IC50 [1] | IC50 [2] | Structure (SMILES) | other results |
| --- | --- | --- | --- |
| 1200 nM |  | CCn1nc(C(F)(F)F)cc1-c1ccc(Oc2cc(F)c(S(=O)(=O)Nc3ccc(F)cn3)cc2Cl)cc1 [Example 404, 5-chloro-4-{4-[1-ethyl-3-(trifluoromethyl)-1H-pyrazol-5-yl]phenoxy}-2-fluoro-N-(5-fluoropyridin-2-yl)benzenesulfonamide] |  |
|  | 8 nM | O=S(=O)(Nc1ncns1)c1cc(F)c(Oc2cc(F)c(Cl)cc2-c2ccnnc2)cc1F [Example 936, 4-(4-chloro-5-fluoro-2-pyridazin-4-ylphenoxy)-2,5-difluoro-N-1,2,4-thiadiazol-5-ylbenzenesulfonamide] |  |
|  | 5.8 nM | N#Cc1cc(S(=O)(=O)Nc2ncns2)ccc1Oc1ccc(OC(F)(F)F)cc1-c1ccnnc1 [Example 878, 3-cyano-4-[2-pyridazin-4-yl-4-(trifluoromethoxy)phenoxy]-N-1,2,4-thiadiazol-5-ylbenzenesulfonamide] |  |
|  | 270 nM | CN1CC(n2nccc2-c2cc(Cl)ccc2Oc2cc(F)c(S(=O)(=O)Nc3ncccn3)cc2Cl)C1 [Example 1012, 5-chloro-4-{4-chloro-2-[1-(1-methylazetidin-3-yl)-1H-pyrazol-5-yl]phenoxy}-2-fluoro-N-pyrimidin-2-ylbenzenesulfonamide] |  |
|  | 4 nM | N#Cc1cc(S(=O)(=O)Nc2ncns2)ccc1Oc1ccc(C(F)(F)F)cc1-c1ccncc1 [Example 960, 3-cyano-4-[2-pyridin-4-yl-4-(trifluoromethyl)phenoxy]-N-1,2,4-thiadiazol-5-ylbenzenesulfonamide] |  |
| 17 nM |  | Cn1nccc1-c1cc(I)ccc1Oc1ccc(S(=O)(=O)Nc2nccs2)cc1C#N [Example 312, 3-cyano-4-[4-iodo-2-(1-methyl-1H-pyrazol-5-yl)phenoxy]-N-1,3-thiazol-2-ylbenzenesulfonamide] |  |
| 6000 nM |  | Cn1nccc1-c1cc(Cl)ccc1Oc1ccc(S(=O)(=O)Nc2ncc(Cl)cn2)cc1C#N [Example 464, 4-[4-chloro-2-(1-methyl-1H-pyrazol-5-yl)phenoxy]-N-(5-chloropyrimidin-2-yl)-3-cyanobenzenesulfonamide] |  |
|  | 57 nM | N#Cc1cc(S(=O)(=O)Nc2ncns2)ccc1Oc1ccc(Cl)cc1C1CNC1 [Example 906, 4-(2-azetidin-3-yl-4-chlorophenoxy)-3-cyano-N-1,2,4-thiadiazol-5-ylbenzenesulfonamide] |  |
| >1000 nM |  | Cn1nccc1-c1cccc(Oc2ccc(S(=O)(=O)Nc3nccs3)cc2C#N)c1 [Example 445, 3-cyano-4-[3-(1-methyl-1H-pyrazol-5-yl)phenoxy]-N-1,3-thiazol-2-ylbenzenesulfonamide] |  |
|  |  | Cc1cc(C)n(-c2ccc(Oc3ccc(S(=O)(=O)Nc4nccs4)cc3F)cc2)n1 [Example 248, 4-[4-(3,5-dimethyl-pyrazol-1-yl)-phenoxy]-3-fluoro-N-thiazol-2-yl-benzenesulfonamide] | IC50 [3]: 2780 nM |
|  | >10000 nM | N#Cc1cc(S(=O)(=O)Nc2nccs2)ccc1Oc1ccc(-c2cnn(CC(F)(F)F)c2N)cc1 [Example 986, 4-{4-[5-amino-1-(2,2,2-trifluoroethyl)-1H-pyrazol-4-yl]phenoxy}-3-cyano-N-1,3-thiazol-2-ylbenzenesulfonamide] |  |
| 96 nM |  | Cc1ncsc1-c1cc(Cl)ccc1Oc1ccc(S(=O)(=O)Nc2nccs2)cc1C#N [Example 698, 4-[4-chloro-2-(4-methyl-1,3-thiazol-5-yl)phenoxy]-3-cyano-N-1,3-thiazol-2-ylbenzenesulfonamide] |  |
|  | 99 nM | O=S(=O)(Nc1ncccn1)c1cc(Cl)c(Oc2ccc(OC(F)(F)F)cc2-c2ccnnc2)cc1F [Example 945, 5-chloro-2-fluoro-4-[2-pyridazin-4-yl-4-(trifluoromethoxy)phenoxy]-N-pyrimidin-2-ylbenzenesulfonamide] |  |
| 1.4 nM |  | N#Cc1cc(S(=O)(=O)Nc2nccs2)ccc1Oc1ccc(Br)cc1-c1cn[nH]c1 [Example 697, 4-[4-Bromo-2-(1H-pyrazol-4-yl)phenoxy]-3-cyano-N-1,3-thiazol-2-ylbenzenesulfonamide] |  |
| 35 nM |  | N#Cc1cc(S(=O)(=O)Nc2ncc(Cl)s2)ccc1Oc1ccc(Cl)cc1C1CCNCC1 [Example 593, 4-(4-Chloro-2-piperidin-4-ylphenoxy)-N-(5-chloro-1,3-thiazol-2-yl)-3-cyanobenzenesulfonamide] |  |
|  | >1000 nM | N#Cc1cc(S(=O)(=O)Nc2nncs2)ccc1Oc1ccc(Cl)cc1-c1cc(N2CCOCC2)ncn1 [Example 876, 4-[4-chloro-2-(6-morpholin-4-ylpyrimidin-4-yl)phenoxy]-3-cyano-N-1,3,4-thiadiazol-2-ylbenzenesulfonamide] |  |
|  | 310 nM | Cn1nccc1-c1cc(Cl)ccc1Oc1ccc(S(=O)(=O)/N=c2\sccn2COP(=O)(O)O)cc1C#N [Example 1039, [(2Z)-2-[({4-[4-Chloro-2-(1-methyl-1H-pyrazol-5-yl)phenoxy]-3-cyanophenyl}sulfonyl)imino]-1,3-thiazol-3(2H)-yl]methyl dihydrogen phosphate] |  |
|  | 180 nM | Cc1cnncc1-c1cc(Cl)ccc1Oc1ccc(S(=O)(=O)Nc2ncns2)cc1C#N [Example 914, 4-[4-chloro-2-(5-methylpyridazin-4-yl)phenoxy]-3-cyano-N-1,2,4-thiadiazol-5-ylbenzenesulfonamide] |  |

| IC50 [1] | IC50 [2] | Structure (SMILES) | other results |
| --- | --- | --- | --- |
|  | 23 nM | Nc1cccc(-c2cc(OC(F)(F)F)ccc2Oc2cc(F)c(S(=O)(=O)Nc3ncns3)cc2F)n1 [Example 830, 4-[2-(6-aminopyridin-2-yl)-4-(trifluoromethoxy)phenoxy]-2,5-difluoro-N-1,2,4-thiadiazol-5-ylbenzenesulfonamide] |  |
| >10000 nM |  | Cc1cnc(NS(=O)(=O)c2ccc(Oc3ccccc3-c3ccccc3)c(C#N)c2)nc1 [Example 429, 4-(biphenyl-2-yloxy)-3-cyano-N-(5-methylpyrimidin-2-yl)benzenesulfonamide] |  |
| 30 nM |  | O=S(=O)(Nc1nncs1)c1cc(Cl)c(Oc2ccc(C(F)(F)F)cc2-c2cn[nH]c2)cc1F [Example 764, 5-chloro-2-fluoro-4-[2-(1H-pyrazol-4-yl)-4-(trifluoromethyl)phenoxy]-N-1,3,4-thiadiazol-2-ylbenzenesulfonamide] |  |
| 67 nM |  | N#Cc1cc(S(=O)(=O)Nc2ncns2)ccc1Oc1ccccc1-c1cn[nH]c1 [Example 385, 4-(2-(1H-pyrazol-4-yl)phenoxy)-3-cyano-N-(1,2,4-thiadiazol-5-yl)benzenesulfonamide] |  |
| 25 nM |  | Cn1nccc1-c1cc(Cl)ccc1Oc1cc(F)c(S(=O)(=O)Nc2nccs2)cc1Cl [Example 304, 5-chloro-4-[4-chloro-2-(1-methyl-1H-pyrazol-5-yl)phenoxy]-2-fluoro-N-1,3-thiazol-2-ylbenzenesulfonamide] |  |
| >1000 nM |  | Cn1nccc1-c1ccc(Oc2ccc(S(=O)(=O)Nc3nccs3)cc2C#N)cn1 [Example 645, 3-cyano-4-{[6-(1-methyl-1H-pyrazol-5-yl)pyridin-3-yl]oxy}-N-1,3-thiazol-2-ylbenzenesulfonamide] |  |
|  |  | O=S(=O)(Nc1nccs1)c1ccc(Oc2ccc(Oc3ccccc3)cc2)c(F)c1 [Example 127, 3-fluoro-4-(4-phenoxyphenoxy)-N-1,3-thiazol-2-ylbenzenesulfonamide] | IC50 [3]: >10000 nM |
| 45 nM |  | Cc1n[nH]cc1-c1cc(Cl)ccc1Oc1ccc(S(=O)(=O)Nc2nccs2)cc1F [Example 749, 4-[4-chloro-2-(3-methyl-1H-pyrazol-4-yl)phenoxy]-3-fluoro-N-1,3-thiazol-2-ylbenzenesulfonamide] |  |
| >1000 nM |  | CN(C)C(=O)c1cnn(-c2ccc(Oc3ccc(S(=O)(=O)Nc4nccs4)cc3C#N)cc2)c1 [Example 375, 1-(4-{2-cyano-4-[(1,3-thiazol-2-ylamino)sulfonyl]phenoxy}phenyl)-N,N-dimethyl-1H-pyrazole-4-carboxamide] |  |
|  |  | CC(C)Oc1ccc(-c2cc(Cl)ccc2Oc2ccc(S(=O)(=O)Nc3nccs3)cc2C#N)cc1 [Example 155, 4-[(5-chloro-4′-isopropoxybiphenyl-2-yl)oxy]-3-cyano-N-1,3-thiazol-2-ylbenzenesulfonamide] | IC50 [3]: 850 nM |
|  |  | N#Cc1cc(S(=O)(=O)Nc2ncns2)ccc1Oc1ccccc1Oc1ccncc1 [Example 63, 3-cyano-4-[2-(pyridin-4-yloxy)phenoxy]-N-1,2,4-thiadiazol-5-ylbenzenesulfonamide] | IC50 [3]: 2350 nM |
|  | 67 nM | Nc1cc(-c2cc(Cl)ccc2Oc2cc(F)c(S(=O)(=O)Nc3ncccn3)cc2Cl)ccn1 [Example 926, 4-[2-(2-aminopyridin-4-yl)-4-chlorophenoxy]-5-chloro-2-fluoro-N-pyrimidin-2-ylbenzenesulfonamide] |  |
| 3400 nM |  | Cc1ccnc(-c2ccc(Oc3ccc(S(=O)(=O)Nc4nccs4)cc3C#N)cc2)c1 [Example 450, 3-cyano-4-[4-(4-methylpyridin-2-yl)phenoxy]-N-1,3-thiazol-2-ylbenzenesulfonamide] |  |
|  |  | Cc1cn(Cc2ccccc2)nc1Oc1ccc(S(=O)(=O)Nc2ncc(Cl)s2)cc1C#N [Example 139, 4-[(1-benzyl-4-methyl-1H-pyrazol-3-yl)oxy]-N-(5-chloro-1,3-thiazol-2-yl)-3-cyanobenzenesulfonamide] | IC50 [3]: 5000 nM |
| 1700 nM |  | Cc1cc(-c2cccc(Oc3ccc(S(=O)(=O)Nc4nccs4)cc3C#N)c2)n(CCN(C)C)n1 [Example 481, 3-cyano-4-(3-{1-[2-(dimethylamino)ethyl]-3-methyl-1H-pyrazol-5-yl}phenoxy)-N-1,3-thiazol-2-ylbenzenesulfonamide] |  |
|  |  | CCc1nsc(NS(=O)(=O)c2ccc(Oc3ccccc3-c3ccccc3)c(C#N)c2)n1 [Example 102, 4-(biphenyl-2-yloxy)-3-cyano-N-(3-ethyl-1,2,4-thiadiazol-5-yl)benzenesulfonamide] | IC50 [3]: >10000 nM |
|  | 130 nM | O=S(=O)(Nc1nncs1)c1cc(Cl)c(Oc2ccc(Cl)c(F)c2-c2ccnnc2)cc1F [Example 956, 5-chloro-4-(4-chloro-3-fluoro-2-pyridazin-4-ylphenoxy)-2-fluoro-N-1,3,4-thiadiazol-2-ylbenzenesulfonamide] |  |
| >1000 nM |  | N#Cc1cc(S(=O)(=O)Nc2nccs2)ccc1Oc1cnn(-c2ccc(Cl)cc2Cl)c1 [Example 333, 3-cyano-4-{[1-(2,4-dichlorophenyl)-1H-pyrazol-4-yl]oxy}-N-1,3-thiazol-2-ylbenzenesulfonamide] |  |
